For this data set the following is noted: for Solubility (%w/v): crotamiton tests. Here is the method:
500 mg crotamiton (SynTech, Ph.Eur. grade) is weighed in a 5-ml volumetric flask; the flask is then filled to 5 ml with F6H8 (Novaliq, purity >99%), closed and shaken for 5 min at 280 rpm, RT.

Each structure is given as a SMILES string. Read-outs that look alike come from different tables or passages of the source. Some results are limits rather than exact numbers.

With `CC=CC(=O)N(CC)c1ccccc1C` [Crotamiton, crotamiton], the “Appearance of resulting solution” value (100 mg/ml (10% w/v) in F6H8, shaken 5 min at 280 rpm, RT) is listed as “clear”. The “Solubility (%w/v)” value reads like this: (solvent F4H5) more than 12%w/v; (solvent F6H2) “^~6%w/v”; (solvent F6H8) more than 12%w/v.
